Common to all, as to format: cell-based
Assay [1] concerns human cervical carcinoma cells (HeLa). Briefly: Cytotoxicity, MTT assay, HeLa. The conditions noted are these: for IC50: Homo sapiens, HeLa, MTT, 24 hours; for HeLa SI: quotient of the IC50 values towards nonmalignant LO2 cells. An excerpt:
(§1) Compounds 2a–d, 3a–e, 4a–e, 5a–d, and 6a–c were screened against human neoplastic cell lines such as human lung carcinoma cells (A549), human gastric adenocarcinoma cells (SGC7901), human cervical carcinoma cells (HeLa), human liver hepatocellular carcinoma cell line (Hepg2), human chronic myelogenous leukemia cell line (K562), human acute mononuclear granulocyte leukemia (THP-1), human normal heptical cell line (LO2) (Table 1) using modified MTT assay (3-(4,5-dimethyl-2-thiazolyl)-2,5-diphenyl-2-H-tetrazolium bromide, MTT, Dojindo Laboratories, Tokyo, Japan). All cell lines were maintained at 37 °C in a humidified 5% CO2 and 95% air atmosphere. The HePG2 cell lines were cultured in DMEM containing 10% fetal bovine serum. Other cell lines were grown in medium 1640 and supplemented with 10% fetal bovine serum. […] Controls were prepared with 0.1% DMSO (v/v) only. The cells were seeded in a 96-well plate in 200 µL medium per well at a density of 1 × 10^4 cells/well for 24 hours. The cells were treated with serial concentrations of compound and incubated for 24 hours. Cells with only culture media were used as control. After the media was removed, 20 µL of MTT (5 mg/mL) was added then the plates were incubated for 4 hours at 37 °C in cell culture incubator. The MTT containing media were removed and then 150 µL of DMSO was added to dissolve the dark-blue formazan crystals. The optical density (OD) was measured by a multi-well plate reader (TECAN, Männedorf, Switzerland) at 570 nm. The results are expressed as a decrease in the cell viability (%) in comparison to untreated controls. The concentration of each compound was examined in triplicate, and the IC50 values are expressed in Table 1. The concentrations of the compounds were 50, 20, 10, 5, 2.5, 1, 0.5, 0.1, 0.05 and 0.01 µg/mL. Doxorubicin (DOX) and Curcumin were used as positive controls. […] The concentrations of curcumin used were 100, 50, 25, 12.5, 6.25, 3.125, 1, 0.5 and 0.1 µg/mL.
(In general: Tetrazolium assays rely on reduction of a dye to a coloured formazan, in cell work by metabolically active cells.)

Assay [2] has as its system human lung carcinoma cells (A549). Briefly: Cytotoxicity, MTT assay, A549. Conditions: for IC50: Homo sapiens, A549, MTT, 24 hours; for A549 SI: quotient of the IC50 values towards nonmalignant LO2 cells.
Text: as §1

Assay [3] has as its system human acute mononuclear granulocyte leukemia (THP-1). The assay can be described thus: Cytotoxicity, MTT assay, THP-1. The conditions noted are these: for IC50: Homo sapiens, THP-1, MTT, 24 hours; for THP-1 SI: quotient of the IC50 values towards nonmalignant LO2 cells.
Text: as §1

Assay [4] concerns human chronic myelogenous leukemia cell line (K562). The assay can be described thus: Cytotoxicity, MTT assay, K562. Conditions: for IC50: Homo sapiens, K562, MTT, 24 hours; for K562 SI: quotient of the IC50 values towards nonmalignant LO2 cells.
Text: as §1

Assay [5] deals with human gastric adenocarcinoma cells (SGC7901). Briefly: Cytotoxicity, MTT assay, SGC7901. Conditions: for IC50: Homo sapiens, SGC-7901, MTT, 24 hours; for SGC7901 SI: quotient of the IC50 values towards nonmalignant LO2 cells.
Text: as §1

Assay [6] concerns human carcinoma cell lines A549, SGC7901, HePG2, HeLa, K562, THP-1. Briefly: Cytotoxicity, MTT assay, panel of human carcinoma cell lines (average / overall). Conditions: average over the six carcinoma cell lines; for IC50: Homo sapiens, read-out: Ave IC50.
Text: as §1
The cytotoxicity activities against human carcinoma cell lines A549, SGC7901, HePG2, HeLa, K562, THP-1 and cytotoxicity toward LO2 cell lines were evaluated by MTT method. DOX and curcumin were used as positive control. The selectivity index (SI) is the quotient of the IC50 values towards nonmalignant LO2 cells. […] Especially for 4a–e, 5a–d, and 6a–c, this ratio can reach about 92%.

Assay [7] has as its system human liver hepatocellular carcinoma cell line (Hepg2). Briefly: Cytotoxicity, MTT assay, HePG2. Conditions: for IC50: Homo sapiens, HepG2, MTT, 24 hours; for HePG2 SI: quotient of the IC50 values towards nonmalignant LO2 cells.
Text: as §1, with “µg/mL.” for “µg/mL. Doxorubicin (DOX) and Curcumin were used as positive controls.”

In assay [8] the test system is human normal heptical cell line (LO2). Briefly: Cytotoxicity, MTT assay, non-malignant LO2. The conditions noted are these: 24 hours, non-malignant cells.
Text: as §1

As a reminder, the IC50 is the concentration needed to halve the response being measured.

Take `COc1cc(Br)cc(/C=N/c2cccc(/C=C3\CCC/C(=C\c4cccc(/N=C/c5cc(Br)cc(OC)c5O)c4)C3=O)c2)c1O` [3e]: in assay [1], the IC50 worked out at 12.8 ± 0.9 µM and the “HeLa SI” value is 0.9. Also, in assay [2], the concentration for half-maximal inhibition (IC50) turned out to be 2.5 ± 0.4 µM and the “A549 SI” value was 4.4. Further, in assay [3], the IC50 stood at 3.3 ± 0.1 µM and the “THP-1 SI” value was determined as 3.4. Moreover, in assay [4], inhibition was half-maximal at 4.2 ± 0.1 µM (IC50) and the “K562 SI” value was determined as 2.7. Also, in assay [5], 3 ± 0.8 µM corresponded to half-maximal inhibition (IC50) and the “SGC7901 SI” value is 3.8. Besides, in assay [6], the IC50 came to 4.6 µM and the “Ave SI” value was found to be 3.5. Further, in assay [7], the IC50 was determined as 1.9 ± 0.01 µM and the “HePG2 SI” value came to 6.0. Inhibition in assay [8] was half-maximal at 11.3 ± 0.3 µM (IC50).

On to `CN1C/C(=C\c2cccc(/N=C/c3ccccc3O)c2)C(=O)/C(=C/c2cccc(/N=C/c3ccccc3O)c2)C1` [4a], for which the concentration for half-maximal inhibition (IC50) in assay [1] came to 6.3 ± 0.2 µM; in assay [2] it was 5.2 ± 0.4 µM; in assay [3] it was 0.9 ± 0.1 µM; in assay [4], 2.8 ± 0.1 µM; in assay [5], 8.3 ± 0.8 µM; in assay [6], 4.3 µM. The IC50 is 2.59 ± 0.1 µM in assay [7] and 10.6 ± 0.1 µM in assay [8]. For the same compound, the “HeLa SI” value in assay [1] stood at 1.7. The “A549 SI” value in assay [2] is listed as 2.1. Further, the “THP-1 SI” value in assay [3] is given as 12.0. In addition, the “K562 SI” value in assay [4] amounted to 3.8. In addition, the “SGC7901 SI” value in assay [5] stood at 1.3. For the same compound, the “Ave SI” value in assay [6] is on record as 4.2. Besides, the “HePG2 SI” value in assay [7] turned out to be 4.1.

With `CN1C/C(=C\c2cccc(/N=C/c3cc(F)ccc3O)c2)C(=O)/C(=C/c2cccc(/N=C/c3cc(F)ccc3O)c2)C1` [4b], in assay [1], the IC50 amounted to 3.5 ± 0.1 µM and the “HeLa SI” value came out at 4.0. For the same compound, in assay [2], it took 4.1 ± 0.4 µM to reach half-maximal inhibition (IC50) and the “A549 SI” value was found to be 3.4. For the same compound, in assay [3], the IC50 amounted to 1.2 ± 0.03 µM and the “THP-1 SI” value is given as 11.5. Further, in assay [4], inhibition was half-maximal at 2.15 ± 1 µM (IC50) and the “K562 SI” value is 6.4. In assay [5], the IC50 stood at 1.4 ± 0.2 µM and the “SGC7901 SI” value is 10.0. In assay [6], the IC50 is 2.2 µM and the “Ave SI” value turned out to be 8.0. Moreover, in assay [7], the IC50 stood at 1.07 ± 0.1 µM and the “HePG2 SI” value is reported as 12.9. In addition, in assay [8], the IC50 amounted to 13.8 ± 0.1 µM.

For the compound `CN1C/C(=C\c2cccc(/N=C/c3cc(Br)ccc3O)c2)C(=O)/C(=C/c2cccc(/N=C/c3cc(Br)ccc3O)c2)C1` [4c], in assay [1], the IC50 was determined as 4.7 ± 0.1 µM and the “HeLa SI” value came to 2.8. Further, in assay [2], the half-maximal inhibitory concentration (IC50) amounted to 9 ± 0.8 µM and the “A549 SI” value was 1.4. Also, in assay [3], half-maximal inhibition (IC50) required 2.5 ± 0.2 µM and the “THP-1 SI” value was 5.1. Moreover, in assay [4], the IC50 amounted to 6.2 ± 0.7 µM and the “K562 SI” value was found to be 2.1. Further, in assay [5], the IC50 stood at 3 ± 0.3 µM and the “SGC7901 SI” value is 4.3. Further, in assay [6], the half-maximal inhibitory concentration (IC50) turned out to be 4.8 µM and the “Ave SI” value was determined as 3.2. Also, in assay [7], it took 3.54 ± 0.1 µM to reach half-maximal inhibition (IC50) and the “HePG2 SI” value is listed as 3.6. Besides, the midpoint of inhibition in assay [8], the IC50, lay at 12.8 ± 0.2 µM.

In the case of `COc1ccc(/C=N/c2cccc(/C=C3\CN(C)C/C(=C\c4cccc(/N=C/c5ccc(OC)cc5O)c4)C3=O)c2)c(O)c1` [4d], the IC50 came to 4.1 ± 0.1 µM in assay [1]; 2.6 ± 0.5 µM in assay [2]; 1 ± 0.03 µM in assay [3]; 2 ± 0.02 µM in assay [4]; 2.3 ± 0.1 µM in assay [5]; 2.2 µM in assay [6]. In addition, the IC50 came to 1.11 ± 0.1 µM in assay [7] and 11.7 ± 0.1 µM in assay [8]. Besides, the “HeLa SI” value in assay [1] was 2.8. For the same compound, in assay [2], the “A549 SI” value is recorded as 4.4. Moreover, the “THP-1 SI” value in assay [3] was found to be 12.3. The “K562 SI” value in assay [4] amounted to 6.0. Moreover, in assay [5], the “SGC7901 SI” value was found to be 5.1. Besides, in assay [6], the “Ave SI” value is listed as 6.9. The “HePG2 SI” value in assay [7] is listed as 10.6.

On to `COc1cc(Br)cc(/C=N/c2cccc(/C=C3\CN(C)C/C(=C\c4cccc(/N=C/c5cc(Br)cc(OC)c5O)c4)C3=O)c2)c1O` [4e], for which the IC50 in assay [1] worked out at 2.6 ± 0.1 µM; in assay [2], 1.5 ± 0.3 µM; in assay [3], 0.9 ± 0.1 µM; in assay [4], 1.8 ± 0.01 µM; in assay [5] it was 2 ± 0.3 µM; in assay [6], 1.7 µM. The 50% inhibitory concentration (IC50) was determined as 1.27 ± 0.02 µM in assay [7] and 10.9 ± 0.2 µM in assay [8]. In addition, in assay [1], the “HeLa SI” value is given as 4.2. In addition, the “A549 SI” value in assay [2] was found to be 7.2. Also, the “THP-1 SI” value in assay [3] was 11.8. In addition, the “K562 SI” value in assay [4] was determined as 5.9. Besides, the “SGC7901 SI” value in assay [5] was determined as 5.4. Further, the “Ave SI” value in assay [6] is listed as 7.2. The “HePG2 SI” value in assay [7] was found to be 8.6.

As to `O=C1/C(=C/c2cc(/N=C/c3cccc(O)c3O)ccc2F)CNC/C1=C\c1cc(/N=C/c2cccc(O)c2O)ccc1F` [5a], in assay [1], half-maximal inhibition (IC50) required 1.1 ± 0.4 µM and the “HeLa SI” value is 15.0. Further, in assay [2], the IC50 is 2.8 ± 0.2 µM and the “A549 SI” value worked out at 6.4. Also, in assay [3], it took 1 ± 0.3 µM to reach half-maximal inhibition (IC50) and the “THP-1 SI” value is on record as 18.5. Further, in assay [4], the IC50 was 1.5 ± 0.1 µM and the “K562 SI” value was determined as 11.7. Further, in assay [5], inhibition was half-maximal at 1.6 ± 0.1 µM (IC50) and the “SGC7901 SI” value was determined as 11.2. In assay [6], the IC50 is 1.6 µM and the “Ave SI” value is given as 12.1. In assay [7], 1.8 ± 0.05 µM corresponded to half-maximal inhibition (IC50) and the “HePG2 SI” value was determined as 9.7. Also, the IC50 in assay [8] was 17.6 ± 1 µM.

Turning to `O=C1/C(=C/c2cc(/N=C/c3cc(O)ccc3O)ccc2F)CNC/C1=C\c1cc(/N=C/c2cc(O)ccc2O)ccc1F` [5b], the half-maximal inhibitory concentration (IC50) in assay [1] came to 4.2 ± 0.5 µM; in assay [2], 3 ± 0.1 µM; in assay [3], 2.2 ± 0.1 µM; in assay [4], 5.7 ± 0.4 µM; in assay [5] it was 1.3 ± 0.2 µM; in assay [6] it was 3.3 µM. Also, the concentration for half-maximal inhibition (IC50) in assay [7] turned out to be 3.3 ± 0.2 µM; in assay [8], 14.1 ± 1 µM. Moreover, in assay [1], the “HeLa SI” value was determined as 3.4. In assay [2], the “A549 SI” value is recorded as 4.8. For the same compound, in assay [3], the “THP-1 SI” value is 6.4. In assay [4], the “K562 SI” value amounted to 2.5. For the same compound, in assay [5], the “SGC7901 SI” value is reported as 10.9. For the same compound, the “Ave SI” value in assay [6] came to 5.4. The “HePG2 SI” value in assay [7] was 4.3.

These data come from paper PMC6327999, “Hydroxyl-substituted double Schiff-base condensed 4-piperidone/cyclohexanones as potential anticancer agents with biological evaluation” (Journal of Enzyme Inhibition and Medicinal Chemistry, 2019).
